pIC50: −log10 of the molar value.
Target: EGFR (UniProt P00533)
Conditions: for inhibition: concentration not given here

Sequence of EGFR (P00533 whole entry, looked up): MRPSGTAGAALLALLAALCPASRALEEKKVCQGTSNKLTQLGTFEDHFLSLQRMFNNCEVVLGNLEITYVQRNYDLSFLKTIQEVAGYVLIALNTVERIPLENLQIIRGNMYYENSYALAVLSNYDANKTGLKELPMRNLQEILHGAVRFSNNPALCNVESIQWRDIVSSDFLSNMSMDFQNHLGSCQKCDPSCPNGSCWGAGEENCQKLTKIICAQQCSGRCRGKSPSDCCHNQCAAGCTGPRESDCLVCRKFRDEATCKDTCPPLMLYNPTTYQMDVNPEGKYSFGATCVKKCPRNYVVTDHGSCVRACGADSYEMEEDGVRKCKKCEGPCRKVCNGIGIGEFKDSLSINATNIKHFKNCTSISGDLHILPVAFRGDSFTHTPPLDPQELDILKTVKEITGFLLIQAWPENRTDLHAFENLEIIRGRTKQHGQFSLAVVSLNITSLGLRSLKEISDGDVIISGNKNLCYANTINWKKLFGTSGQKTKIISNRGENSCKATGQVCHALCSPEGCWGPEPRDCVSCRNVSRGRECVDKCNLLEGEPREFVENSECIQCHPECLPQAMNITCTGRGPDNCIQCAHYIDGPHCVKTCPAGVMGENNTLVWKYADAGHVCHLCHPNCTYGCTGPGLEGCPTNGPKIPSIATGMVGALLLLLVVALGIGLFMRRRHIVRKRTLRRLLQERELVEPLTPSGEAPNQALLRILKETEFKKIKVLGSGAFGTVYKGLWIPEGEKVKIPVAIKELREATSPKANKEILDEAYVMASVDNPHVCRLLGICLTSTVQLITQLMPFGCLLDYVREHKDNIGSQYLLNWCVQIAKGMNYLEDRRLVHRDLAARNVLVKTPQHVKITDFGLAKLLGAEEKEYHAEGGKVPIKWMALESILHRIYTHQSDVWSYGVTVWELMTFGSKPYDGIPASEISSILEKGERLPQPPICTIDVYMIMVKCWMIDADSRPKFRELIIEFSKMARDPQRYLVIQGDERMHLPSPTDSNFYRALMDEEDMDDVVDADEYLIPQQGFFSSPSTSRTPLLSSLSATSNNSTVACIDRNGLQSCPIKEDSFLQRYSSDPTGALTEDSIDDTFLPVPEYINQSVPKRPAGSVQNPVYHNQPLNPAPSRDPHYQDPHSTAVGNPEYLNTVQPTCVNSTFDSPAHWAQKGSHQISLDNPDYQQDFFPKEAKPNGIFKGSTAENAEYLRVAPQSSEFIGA

| inhibition | pIC50 | SMILES |
| --- | --- | --- |
| 0% |  | OC1C=Cc2ccccc2O1 (configuration not stated) |
| 0% |  | O=c1ccc2cc(O)c(O)cc2o1 |
| 0% |  | O=c1ccc2ccc(O)cc2o1 |

More lines, now with the values behind:

| SMILES | inhibition | pIC50 |
| --- | --- | --- |
| O=c1ccc2ccc(O)c(O)c2o1 | 99.6% | 5.12 |
| O=c1ccc2ccccc2o1 | 0% |  |
| O=c1cc(O)c2ccccc2o1 | 0% |  |

— the Kinase Knowledgebase extract (Sharma et al. 2016)
